Experimental data published in US6737383B1, “Herbicidal oxadiazolidines” (priority 1999, dated 2004).

Legend:
crabgrass = test: Test B pre/postemergence crabgrass; type: in vivo, Digitaria sanguinalis
In short: (§1)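 Herbicidal effect was estimated by eye on a ten-point control scale after plants spent twelve to sixteen days in a greenhouse following soil or foliar treatment. Foliar sprays targeted plants at one to four leaves; all doses were formulated in a non-phytotoxic solvent with surfactant.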

pigweed = test: Test B pre/postemergence pigweed; type: in vivo, Amaranthus retroflexus
In short: as §1

rice = test: Test B flood test rice; type: in vivo, Oryza sativa
In short: (§2)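 Each value is a visual injury score relative to controls, with 10 meaning complete control and 0 no effect. Evaluation took place twelve to sixteen days after the 2-leaf-stage plants were treated and kept in the greenhouse.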

velvetleaf = test: Test B pre/postemergence velvetleaf; type: in vivo, Abutilon theophrasti
In short: as §1

sugar beet = test: Test B pre/postemergence sugar beet; type: in vivo, Beta vulgaris
In short: as §1

morningglory = test: Test B pre/postemergence morningglory; type: in vivo, Ipomoea hederacea
In short: as §1

cocklebur = test: Test B pre/postemergence cocklebur; type: in vivo, Xanthium strumarium
In short: as §1

bedstraw = test: Test B pre/postemergence bedstraw; type: in vivo, Galium aparine
In short: as §1

surinam grass = test: Test B pre/postemergence surinam grass; type: in vivo, Brachiaria decumbens
In short: as §1

corn = test: Test B pre/postemergence corn; type: in vivo, Zea mays
In short: as §1

blackgrass = test: Test B pre/postemergence blackgrass; type: in vivo, Alopecurus myosuroides
In short: as §1

rape = test: Test B pre/postemergence rape; type: in vivo, Brassica napus
In short: as §1

wild oat = test: Test B pre/postemergence wild oat; type: in vivo, Avena fatua
In short: as §1

bamyardgrass = test: Test B flood test barnyardgrass; type: in vivo, Echinochloa crus-galli
In short: as §2

giant foxtail = test: Test B pre/postemergence giant foxtail; type: in vivo, Setaria faberii
In short: as §1

smallflower flatsedge = test: Test B flood test smallflower flatsedge; type: in vivo, Cyperus difformis
In short: as §2

[1] = Postemergence, Rate 125 g/ha, scale of 0 to 10 where 0 is no effect and 10 is complete control
[2] = Preemergence, Rate 62 g/ha, scale of 0 to 10 where 0 is no effect and 10 is complete control
[3] = Preemergence, Rate 125 g/ha, 0 is no effect, 10 is complete control
[4] = Preemergence, Rate 250 g/ha, scale 0 to 10, 0 is no effect, 10 is complete control
[5] = Preemergence, Rate 500 g/ha, scale 0 to 10 (0 no effect, 10 complete control)
[6] = Rate 62 g/ha, Postemergence, scale of 0 to 10 where 0 is no effect and 10 is complete control
[7] = Rate 250 g/ha, Postemergence, scale 0 to 10, 0 is no effect, 10 is complete control
[8] = Rate 500 g/ha, Postemergence, scale 0 to 10
[9] = Postemergence (flood test species), Rate 125 g/ha, scale of 0 to 10 where 0 is no effect and 10 is complete control
[10] = Rate 62 g/ha, Postemergence section, flood test species, scale of 0 to 10 where 0 is no effect and 10 is complete control
[11] = Rate 250 g/ha, Postemergence (flood test), scale 0 to 10, 0 is no effect, 10 is complete control
[12] = Rate 500 g/ha, listed under Postemergence (flood test species), scale 0 to 10

CC(C)N(C(=O)n1oc(=O)[nH]c1=O)c1ccc(F)cc1 [Compound 164]
Crabgrass plant response rating (crabgrass; [1]): 0
Crabgrass plant response rating (crabgrass; [2]): 0
Crabgrass plant response rating (0 to 10 scale) (crabgrass; [3]): 0
Crabgrass plant response rating (crabgrass; [4]): 0
Crabgrass plant response rating (crabgrass; [5]): 4
Crabgrass plant response rating (crabgrass; [6]): 0
Plant response rating, Crabgrass (crabgrass; [7]): 2
Crabgrass plant response rating (crabgrass; [8]): 9
Redroot pigweed plant response rating (pigweed; [1]): 0
Redroot pigweed plant response rating (pigweed; [2]): 0
Redroot pigweed plant response rating (0 to 10 scale) (pigweed; [3]): 0
Redroot pigweed plant response rating (pigweed; [4]): 0
Redroot pigweed plant response rating (pigweed; [5]): 0
Redroot pigweed plant response rating (pigweed; [6]): 0
Plant response rating, Redroot pigweed (pigweed; [7]): 0
Redroot pigweed plant response rating (pigweed; [8]): 0
Rice plant response rating (rice; [9]): 0
Rice plant response rating (rice; [10]): 0
Plant response rating, Rice (rice; [11]): 0
Rice plant response rating (rice; [12]): 0
Velvetleaf plant response rating (velvetleaf; [2]): 0
Velvetleaf plant response rating (0 to 10 scale) (velvetleaf; [3]): 0
Velvetleaf plant response rating (velvetleaf; [4]): 0
Velvetleaf plant response rating (velvetleaf; [5]): 0
Plant response rating, Velvetleaf (velvetleaf; [7]): 0
Velvetleaf plant response rating (velvetleaf; [8]): 0
Sugarbeets plant response rating (sugar beet; [1]): 0
Sugarbeets plant response rating (sugar beet; [2]): 0
Sugarbeets plant response rating (0 to 10 scale) (sugar beet; [3]): 0
Sugarbeets plant response rating (sugar beet; [4]): 0
Sugarbeets plant response rating (sugar beet; [5]): 0
Sugarbeets plant response rating (sugar beet; [6]): 0
Plant response rating, Sugarbeets (sugar beet; [7]): 0
Sugarbeets plant response rating (sugar beet; [8]): 0
Morningglory plant response rating (morningglory; [1]): 0
Morningglory plant response rating (morningglory; [2]): 0
Morningglory plant response rating (0 to 10 scale) (morningglory; [3]): 0
Morningglory plant response rating (morningglory; [4]): 0
Morningglory plant response rating (morningglory; [5]): 0
Morningglory plant response rating (morningglory; [6]): 0
Plant response rating, Morningglory (morningglory; [7]): 0
Morningglory plant response rating (morningglory; [8]): 2
Cocklebur plant response rating (cocklebur; [1]): 0
Cocklebur plant response rating (cocklebur; [2]): 0
Cocklebur plant response rating (0 to 10 scale) (cocklebur; [3]): 0
Cocklebur plant response rating (cocklebur; [4]): 0
Cocklebur plant response rating (cocklebur; [5]): 0
Cocklebur plant response rating (cocklebur; [6]): 0
Plant response rating, Cocklebur (cocklebur; [7]): 0
Cocklebur plant response rating (cocklebur; [8]): 0
Bedstraw plant response rating (bedstraw; [1]): 0
Bedstraw plant response rating (bedstraw; [2]): 0
Bedstraw plant response rating (0 to 10 scale) (bedstraw; [3]): 0
Bedstraw plant response rating (bedstraw; [4]): 0
Bedstraw plant response rating (bedstraw; [5]): 0
Bedstraw plant response rating (bedstraw; [6]): 0
B. signalgrass plant response rating (surinam grass; [1]): 0
B. signalgrass plant response rating (surinam grass; [2]): 0
B. signalgrass plant response rating (0 to 10 scale) (surinam grass; [3]): 0
B. signalgrass plant response rating (surinam grass; [4]): 0
B. signalgrass plant response rating (surinam grass; [5]): 0
B. signalgrass plant response rating (surinam grass; [6]): 0
Plant response rating, B. signalgrass (surinam grass; [7]): 0
B. signalgrass plant response rating (surinam grass; Rate 500 g/ha, Postemergence, scale 0 to 10, 0 no effect, 10 complete control): 0
Corn plant response rating (corn; [1]): 0
Corn plant response rating (corn; [2]): 0
Corn plant response rating (0 to 10 scale) (corn; [3]): 0
Corn plant response rating (corn; [4]): 0
Corn plant response rating (corn; [5]): 0
Corn plant response rating (corn; [6]): 0
Plant response rating, Corn (corn; [7]): 0
Corn plant response rating (corn; [8]): 0
Blackgrass plant response rating (blackgrass; [1]): 0
Blackgrass plant response rating (blackgrass; [2]): 0
Blackgrass plant response rating (0 to 10 scale) (blackgrass; [3]): 0
Blackgrass plant response rating (blackgrass; [4]): 0
Blackgrass plant response rating (blackgrass; [5]): 0
Blackgrass plant response rating (blackgrass; [6]): 0
Plant response rating, Blackgrass (blackgrass; [7]): 0
Blackgrass plant response rating (blackgrass; [8]): 0
Rape plant response rating (rape; [1]): 0
Rape plant response rating (rape; [2]): 0
Rape plant response rating (0 to 10 scale) (rape; [3]): 0
Rape plant response rating (rape; [4]): 0
Rape plant response rating (rape; [5]): 0
Rape plant response rating (rape; [6]): 0
Plant response rating, Rape (rape; [7]): 0
Rape plant response rating (rape; [8]): 0
Wild oats plant response rating (wild oat; [2]): 0
Wild oats plant response rating (0 to 10 scale) (wild oat; [3]): 0
Wild oats plant response rating (wild oat; [4]): 0
Wild oats plant response rating (wild oat; [5]): 0
Plant response rating, Wild oats (wild oat; [7]): 0
Wild oats plant response rating (wild oat; [8]): 0
Barnyardgrass plant response rating (bamyardgrass; [9]): 0
Barnyardgrass plant response rating (bamyardgrass; [10]): 0
Plant response rating, Barnyardgrass (bamyardgrass; [11]): 0
Barnyardgrass plant response rating (bamyardgrass; [12]): 0
Giant foxtail plant response rating (giant foxtail; [1]): 0
Giant foxtail plant response rating (giant foxtail; [2]): 0
Giant foxtail plant response rating (0 to 10 scale) (giant foxtail; [3]): 0
Giant foxtail plant response rating (giant foxtail; [4]): 0
Giant foxtail plant response rating (giant foxtail; [5]): 2
Giant foxtail plant response rating (giant foxtail; [6]): 0
Plant response rating, Giant foxtail (giant foxtail; [7]): 0
Giant foxtail plant response rating (giant foxtail; [8]): 7
S. Flatsedge plant response rating (smallflower flatsedge; [9]): 0
S. Flatsedge plant response rating (smallflower flatsedge; [10]): 0
Plant response rating, S. Flatsedge (smallflower flatsedge; [11]): 0
S. Flatsedge plant response rating (smallflower flatsedge; [12]): 0
